Laboratory results published in the CheMixHub viscosity set.

Experiment: xn = mol fraction of the nth substance listed

CC(C)(C)O + CCO
303.2 K, 101.33 kPa
Settings	viscosity [mPa·s]
x2 = 0.05	3.256
x2 = 0.1	3.156
x2 = 0.15	3.039
x2 = 0.2	2.914
x2 = 0.3	2.645
x2 = 0.4	2.36
x2 = 0.5	2.07
x2 = 0.6	1.793
x2 = 0.7	1.548
x2 = 0.8	1.336
x2 = 0.85	1.239
x2 = 0.9	1.147
x2 = 0.95	1.059

CN(CCO)CCO + CCO
313 K, 101.33 kPa
Settings	viscosity [mPa·s]
x1 = 0.0079	0.832
x1 = 0.02	0.888
x1 = 0.0434	0.998
x1 = 0.216	2.132
x1 = 0.2986	2.967
x1 = 0.3977	4.196
x1 = 0.5237	7.05
x1 = 0.5978	9.003
x1 = 0.7028	12.92
x1 = 0.8085	17.79
x1 = 0.908	23.88

COCCOCCOCCO + CCOC(=O)OCC
298.15 K, 101.33 kPa
Settings	viscosity [mPa·s]
x1 = 0.0084	0.762
x1 = 0.017	0.775
x1 = 0.0385	0.809
x1 = 0.0758	0.874
x1 = 0.0923	0.905
x1 = 0.1232	0.967
x1 = 0.1538	1.035
x1 = 0.1917	1.126
x1 = 0.2331	1.242
x1 = 0.2893	1.408
x1 = 0.326	1.528
x1 = 0.3668	1.676
x1 = 0.41	1.845
x1 = 0.4336	1.944
x1 = 0.4506	2.027
x1 = 0.4939	2.224
x1 = 0.5117	2.316
x1 = 0.5615	2.578
x1 = 0.603	2.819
x1 = 0.676	3.303
x1 = 0.7411	3.785
x1 = 0.8077	4.364
x1 = 0.8846	5.15
x1 = 0.925	5.608

COCCOCCOCCOC + CCOC(=O)OCC
298.15 K, 101.33 kPa
Settings	viscosity [mPa·s]
x1 = 0.0103	0.759
x1 = 0.0175	0.767
x1 = 0.0246	0.775
x1 = 0.0367	0.788
x1 = 0.0576	0.813
x1 = 0.0787	0.837
x1 = 0.0958	0.856
x1 = 0.119	0.879
x1 = 0.1509	0.913
x1 = 0.1983	0.966
x1 = 0.2499	1.021
x1 = 0.3024	1.081
x1 = 0.3233	1.105
x1 = 0.3543	1.142
x1 = 0.4034	1.199
x1 = 0.4614	1.268
x1 = 0.5022	1.324
x1 = 0.552	1.386
x1 = 0.6112	1.463
x1 = 0.6561	1.519
x1 = 0.7044	1.583
x1 = 0.7371	1.624
x1 = 0.7905	1.693
x1 = 0.8464	1.764
x1 = 0.9175	1.85
x1 = 0.951	1.894

COCCOCCOCCO + CCOC(C)(C)C
viscosity [mPa·s], 101 kPa
Settings	293.15 K	298.15 K	303.15 K
x2 = 0.0504	6.269	5.479	4.777
x2 = 0.1	5.458	4.8	4.209
x2 = 0.1509	4.734	4.186	3.689
x2 = 0.2025	4.101	3.643	3.225
x2 = 0.2489	3.607	3.216	2.859
x2 = 0.3007	3.129	2.801	2.501
x2 = 0.3511	2.729	2.453	2.199
x2 = 0.3999	2.394	2.159	1.944
x2 = 0.4508	2.091	1.893	1.712
x2 = 0.5001	1.837	1.669	1.516
x2 = 0.5493	1.616	1.475	1.345
x2 = 0.6	1.418	1.3	1.192
x2 = 0.6503	1.248	1.149	1.058
x2 = 0.6998	1.102	1.019	0.943
x2 = 0.7491	0.974	0.906	0.842
x2 = 0.7999	0.86	0.803	0.751
x2 = 0.8509	0.759	0.712	0.669
x2 = 0.9001	0.674	0.635	0.6
x2 = 0.9498	0.599	0.566	0.536

COCCOCCOCCOC + CCOC(C)=O
viscosity [mPa·s], 101.3 kPa
Settings	298.15 K	308.15 K	318.15 K
x1 = 0.0071	0.436	0.391	0.358
x1 = 0.0233	0.454	0.406	0.369
x1 = 0.0549	0.488	0.434	0.395
x1 = 0.0836	0.522	0.464	0.417
x1 = 0.1198	0.564	0.498	0.447
x1 = 0.1684	0.626	0.548	0.489
x1 = 0.2665	0.752	0.651	0.574
x1 = 0.3217	0.833	0.717	0.624
x1 = 0.3905	0.931	0.796	0.69
x1 = 0.4265	0.985	0.841	0.725
x1 = 0.4683	1.058	0.895	0.769
x1 = 0.522	1.141	0.963	0.823
x1 = 0.5558	1.196	1.002	0.856
x1 = 0.6015	1.267	1.058	0.903
x1 = 0.6458	1.34	1.119	0.949
x1 = 0.725	1.479	1.223	1.028
x1 = 0.741	1.504	1.244	1.045
x1 = 0.7798	1.572	1.297	1.085
x1 = 0.8318	1.616	1.366	1.139
x1 = 0.8823	1.754	1.433	1.194
x1 = 0.9348	1.846	1.51	1.247
x1 = 0.9606	1.89	1.542	1.276

CC(C)(C)O + CN1CCCC1=O
298.15 K, 101 kPa
Settings	viscosity [mPa·s]
x2 = 0.0522	4.027
x2 = 0.1107	3.478
x2 = 0.2046	2.892
x2 = 0.2528	2.676
x2 = 0.3034	2.494
x2 = 0.3557	2.342
x2 = 0.4023	2.234
x2 = 0.4562	2.13
x2 = 0.4773	2.095
x2 = 0.4998	2.064
x2 = 0.5605	1.981
x2 = 0.5966	1.942
x2 = 0.6533	1.885
x2 = 0.7046	1.842
x2 = 0.7461	1.809
x2 = 0.8029	1.775
x2 = 0.8498	1.745
x2 = 0.9007	1.719
x2 = 0.9581	1.688

CCC(O)CO (stereo not given) + CN1CCCC1=O
Settings	viscosity [mPa·s]
298.15 K, 101.33 kPa, x2 = 0.0654	38.07
298.15 K, 101.33 kPa, x2 = 0.1029	31.55
298.15 K, 101.33 kPa, x2 = 0.2083	19.25
298.15 K, 101.33 kPa, x2 = 0.3075	12.65
298.15 K, 101.33 kPa, x2 = 0.3987	8.95
298.15 K, 101.33 kPa, x2 = 0.4992	6.384
298.15 K, 101.33 kPa, x2 = 0.5997	4.714
298.15 K, 101.33 kPa, x2 = 0.6958	3.61
298.15 K, 101.33 kPa, x2 = 0.8118	2.663
298.15 K, 101.33 kPa, x2 = 0.9111	2.083
298.15 K, 101.33 kPa, x2 = 0.9632	1.837
308.15 K, 101 kPa, x1 = 0.0282	1.835
308.15 K, 101 kPa, x1 = 0.0564	2.019
308.15 K, 101 kPa, x1 = 0.1026	2.039
308.15 K, 101 kPa, x1 = 0.1884	2.067
308.15 K, 101 kPa, x1 = 0.3027	3.253
308.15 K, 101 kPa, x1 = 0.4056	3.955
308.15 K, 101 kPa, x1 = 0.4941	4.933
308.15 K, 101 kPa, x1 = 0.6024	6.647
308.15 K, 101 kPa, x1 = 0.6843	8.612
308.15 K, 101 kPa, x1 = 0.7939	12.61
308.15 K, 101 kPa, x1 = 0.888	17.95
308.15 K, 101 kPa, x1 = 0.9396	22.95
308.15 K, 101 kPa, x1 = 0.9764	27.1
308.15 K, 101.33 kPa, x2 = 0.05493	22.04
308.15 K, 101.33 kPa, x2 = 0.1102	17.39
308.15 K, 101.33 kPa, x2 = 0.1762	13.32
308.15 K, 101.33 kPa, x2 = 0.2999	8.57
308.15 K, 101.33 kPa, x2 = 0.3972	6.231
308.15 K, 101.33 kPa, x2 = 0.4977	4.671
308.15 K, 101.33 kPa, x2 = 0.6026	3.551
308.15 K, 101.33 kPa, x2 = 0.6974	2.829
308.15 K, 101.33 kPa, x2 = 0.8019	2.225
308.15 K, 101.33 kPa, x2 = 0.9106	1.745
308.15 K, 101.33 kPa, x2 = 0.9521	1.595
318.15 K, 101.33 kPa, x2 = 0.05598	13.51
318.15 K, 101.33 kPa, x2 = 0.1062	11.16
318.15 K, 101.33 kPa, x2 = 0.2044	7.948
318.15 K, 101.33 kPa, x2 = 0.2997	5.996
318.15 K, 101.33 kPa, x2 = 0.4011	4.469
318.15 K, 101.33 kPa, x2 = 0.4992	3.505
318.15 K, 101.33 kPa, x2 = 0.6003	2.789
318.15 K, 101.33 kPa, x2 = 0.702	2.252
318.15 K, 101.33 kPa, x2 = 0.8041	1.83
318.15 K, 101.33 kPa, x2 = 0.9081	1.49
318.15 K, 101.33 kPa, x2 = 0.951	1.373

Nc1ccccc1 + CN1CCCC1=O
viscosity [mPa·s], 101 kPa
Settings	x2 = 0.0954	x2 = 0.1918	x2 = 0.2892	x2 = 0.3876	x2 = 0.487	x2 = 0.5875	x2 = 0.689	x2 = 0.7915	x2 = 0.8952
303.15 K	2.963	2.89	2.81	2.705	2.55	2.34	2.15	1.964	1.76
308.15 K	2.57	2.51	2.445	2.34	2.187	2.035	1.875	1.736	1.571
313.15 K	2.25	2.2	2.13	2.05	1.95	1.83	1.7	1.58	1.445
318.15 K	1.99	1.94	1.89	1.825	1.735	1.623	1.52	1.417	1.309

C1COCCOCCOCCOCCO1 + CN(C)C=O
101 kPa
Settings	viscosity [mPa·s]
293.15 K, x1 = 0.00344	0.8668
293.15 K, x1 = 0.0059	0.8771
293.15 K, x1 = 0.008679	0.8888
293.15 K, x1 = 0.01131	0.8997
293.15 K, x1 = 0.01335	0.9089
293.15 K, x1 = 0.01528	0.9166
298.15 K, x1 = 0.003438	0.8165
298.15 K, x1 = 0.006613	0.8287
298.15 K, x1 = 0.009181	0.8386
298.15 K, x1 = 0.01161	0.8485
298.15 K, x1 = 0.0137	0.8568
298.15 K, x1 = 0.01547	0.8639
303.15 K, x1 = 0.002196	0.7595
303.15 K, x1 = 0.004812	0.7687
303.15 K, x1 = 0.006882	0.7758
303.15 K, x1 = 0.008916	0.7832
303.15 K, x1 = 0.01094	0.7907
303.15 K, x1 = 0.01259	0.797
308.15 K, x1 = 0.003532	0.7213
308.15 K, x1 = 0.006367	0.7307
308.15 K, x1 = 0.008768	0.7387
308.15 K, x1 = 0.01108	0.7463
308.15 K, x1 = 0.01321	0.7538
308.15 K, x1 = 0.01506	0.7599

CCC(O)CO (stereo not given) + CN(C)C=O
308.15 K, 101 kPa
Settings	viscosity [mPa·s]
x1 = 0.0519	0.748
x1 = 0.1008	0.855
x1 = 0.2013	1.113
x1 = 0.2983	1.444
x1 = 0.4099	2.065
x1 = 0.4883	2.645
x1 = 0.5694	3.576
x1 = 0.7139	7.387
x1 = 0.8896	16.22
x1 = 0.9489	21.9

Nc1ccccc1 + CN(C)C=O
viscosity [mPa·s], 101.33 kPa
Settings	x2 = 0.1013	x2 = 0.203	x2 = 0.3061	x2 = 0.4006	x2 = 0.5013	x2 = 0.6024	x2 = 0.6967	x2 = 0.8002	x2 = 0.9059
303.15 K	2.783	2.508	2.273	2.048	1.812	1.571	1.341	1.115	0.908
313.15 K	2.131	1.957	1.793	1.64	1.474	1.3	1.135	0.96	0.801
